Measured values: article PMC12583827, “Harnessing microbial-derived metabolites in the urinary tract to prevent infection induced catheter encrustation” (Nature Communications, 2025)
Counter-ions that a name gives are not always drawn.

How the values were obtained:
M. morganii urease = test: Urease activity assay, whole cell M. morganii TA43; type: cell-based, Morganella morganii
Procedure: Urease activity was measured as described previously in triplicate with at least three biological replicates[21]. Briefly, bacteria were cultured for ~18 h in LB broth, concentrated to an OD600 of 4, washed once in saline, and diluted (1:10 for P. mirabilis and 1:50 for P. stuartii and M. morganii) into candidate dampening metabolites in potassium phosphate buffer or human urine pH7 and supplemented with 500 mM urea and 0.01% phenol red. Bacterial suspensions were distributed into a 96-well plate, incubated at 37 °C with double-orbital shaking in a Synergy H1 plate reader (BioTek), and absorbance (OD562) was measured every 60 seconds for 180 minutes. Isogenic urease mutants (Supplementary Data 1) served as negative controls for P. mirabilis and P. stuartii and a vehicle control served as a negative control for M. morganii.

M. morganii TA43 = test: Growth and viability of M. morganii in dampening metabolites; type: cell-based, Morganella morganii
Procedure: (§1) 478 Supplementary Figure 20. Growth of M. morganii, P. stuartii and UTI MRSA incubated in
(§2) 479 dampening metabolites. M. morganii TA43 (A,D,G), P. stuartii BE2467(B,E,H), UTI MRSA
(§3) 480 (C,F,I) were incubated in urease dampening metabolites to assess impact on growth. Bacteria
(§4) 481 were cultured for ~18 hours in LB (Mm and Ps) or BHI (MRSA) broth, then diluted 1:100 into
(§5) 482 fresh broth with (A-C) the highest concentrations of dampening metabolites assessed for urease
(§6) 483 inhibition or (D-F) serial dilutions of D-imidazole lactate. Bacterial suspensions were incubated
(§7) 484 at 37 °C with double-orbital shaking, and OD600 was measured every 15 minutes for 18 hours.
(§8) 485 Error bars represent mean ± standard deviation (SD) from at least 3 technical replicates, and
(§9) 486 graphs are representative of 3 independent biologic experiments. (G-I) Viability of incubated in
(§10) 487 Mm, Ps or MRSA incubated in serial dilutions of D-imidazole lactate. Overnight cultures were
(§11) (1 picture or pasted object on this page, not shown here)
(§12) 488 subcultured to mid log phase, washed in potassium phosphate buffer, and diluted 1:10 in
(§13) 489 potassium phosphate buffer with and without D-imidazole lactate. Samples (n=3) were incubated
(§14) 490 at 37°C with aeration for one hour then plated and enumerated for colony forming units (CFU).

P. stuartii BE2467 = test: Growth and viability of P. stuartii in dampening metabolites; type: cell-based, Providencia stuartii
Procedure: as §1, §2, §3, §4, §5, §6, §7, §8, §9, §10, §11, §12, §13, §14

UTI MRSA = test: Growth and viability of UTI MRSA in dampening metabolites; type: cell-based, Staphylococcus aureus
Procedure: as §1, §2, §3, §4, §5, §6, §7, §8, §9, §10, §11, §12, §13, §14

P. mirabilis = test: In vitro glass “bladder” model of catheter encrustation; type: cell-based, Proteus mirabilis; details: for crystalline biofilm formation / Magnesium and phosphorus precipitation on catheter segments (ICP-OES) / catheter biofilm biomass (crystal violet) vs untreated P. mirabilis: 24 h; for crystalline biofilm formation: alone: 1.25 mM AHA, 12.5 mM histamine, 12.5 mM 4-imidazole acetate; for P. mirabilis CFUs in effluent over time / urease-mediated pH increase: tested individually; for urease-mediated pH increase: dose response
Procedure: A Foley catheter is inserted aseptically into the vessel through an opening at the base, the balloon is inflated, and the catheter is attached to a catheter drainage bag (Fig. 7A). The “bladder” is supplied with sterile AUM at a physiologically relevant flow rate via peristaltic pump from a media reservoir, the “kidney” (Fig. 7A). An initial bacterial inoculum of 10^8 CFU of P. mirabilis was added to the AUM in the “bladder” inner chamber to model robust bacteriuria, followed by initiation of flow (Fig. 7B). The performance of urease-dampening metabolites was evaluated as a reduction in 1) effluent AUM pH over the 24 h study period, and 2) crystalline biofilm formation and ion precipitation on catheter segments 24 h post inoculation. Urease-dampening metabolites and AHA were introduced into the system by direct dissolution into the AUM reservoirs. For each study, both positive (untreated P. mirabilis) and negative (untreated P. mirabilis urease negative mutant) controls were included. Effluent urine samples were collected at 0, 3, 6, 9, 12 and 24 h post inoculation. This preclinical model of catheter encrustation was modified to assess whether prophylactic administration of urease-dampening metabolites increases efficacy of antimicrobials against catheter biofilms, as outlined in Fig. 9A. Each experiment was performed in triplicate. Full details of experimental set up, sample collection, and processing are provided below and in Supplementary Materials.
A previously described glass “bladder” model was used, in which a 500 mL water-jacketed glass vessel is maintained at 37 °C via a circulating water bath, a Foley catheter is inserted and inflated, and artificial urine medium (AUM) is supplied into the “bladder” at a constant flow rate (0.75-1.0 mL/min) through a peristaltic pump[55],[56]. For consistency with the in vitro urease activity assays and the physiologic range of urea in healthy human urine, AUM was supplemented with 500 mM urea[57]. Urease-dampening metabolites of interest were directly dissolved in AUM 500 mM urea, adjusted to a pH of 5.8, and filter sterilized via a 0.2μm filter. “Bladders” were inoculated with 10^8 CFUs of P. mirabilis. Samples were collected from the catheter port at 0, 3, 6, 9, 12, and 24 hours to monitor pH and bacterial CFUs. Catheters segments were processed for CFUs, crystal violet staining of biofilm biomass, and ion composition at 24 h. Full details are provided in the Supplementary Methods.
236 and the segments were air dried for 15 min. Catheter segments were stained with 1.0 ml 0.1%
237 crystal violet for 10 min, washed by gentle dunking in 1X phosphate-buffered saline (PBS) to
238 remove excess stain, and solubilized in a microcentrifuge tube containing 750μL of 1% SDS
239 95% ethanol and vortexed for 5 minutes. Crystal violet absorbance (OD570) was measured in a
240 BioTek Synergy H1 microplate reader and blanked using cell-free control wells for each biofilm
243 Catheter segment biofilm viability. Catheter segments were washed by gentle dunking in 1X
244 phosphate-buffered saline (PBS) to remove any remaining planktonic bacteria and residual AUM
245 from the catheter lumen. Catheter segments were then placed in a microcentrifuge tube
246 containing 1mL of 1X PBS and vortexed for 5 minutes to solubilize the biofilm. Samples
247 underwent serial 10-fold dilutions and were spiral plated (Eddy Jet 2; Neutec Group Inc.,
248 Farmingdale, NY) onto low-salt LB agar for enumeration of CFU using a ProtoCOL 3 automated
249 colony counter (Synbiosis).
251 Catheter segment elemental composition. Catheter segments were placed in a microcentrifuge

[1] = test system: isolated guinea pig bladders; details: cited from earlier work
isolated rabbit bladders = details: cited from earlier work
[2] = Buffering capacity assay (NaOH titration, phenol red); type: physicochemical; details: high concentrations of metabolite in potassium phosphate buffer with phenol red
Procedure: Known concentrations of sodium hydroxide were added to each well of a 96 well plate in combination with candidate dampening metabolite of interest buffered 1:10 in potassium phosphate buffer pH7. 0.01% phenol red was added to each well, and absorbance (OD562) was measured in a Synergy H1 plate reader (BioTek).

[3] = parameters: method as in PMID 9792207; details: administered into the lateral ventricle; cited from earlier work
[4] = parameters: method as in PMID 9792207; details: intraperitoneal injections; cited from earlier work
[5] = incubation in potassium phosphate, CFU
[6] = alone: 5 mM AHA, 25 mM histamine, 25 mM 4-imidazole acetate
[7] = alone: 5 mM AHA, 25 mM histamine, 25 mM 4-imidazole acetate, nucleation point ~ pH 8

Row | SMILES | urease activity in M. morganii (M. morganii urease) | growth of M. morganii (M. morganii TA43; LB broth) | antimicrobial activity against M. morganii TA43 (M. morganii TA43; [5]) | growth of P. stuartii (P. stuartii BE2467; LB broth) | antimicrobial activity against P. stuartii BE2467 (P. stuartii BE2467; [5]) | growth of UTI MRSA (UTI MRSA; BHI broth) | antimicrobial activity against UTI MRSA (UTI MRSA; [5]) | reduction in CFUs of UTI MRSA (UTI MRSA; one h incubation in potassium phosphate buffer) | crystalline biofilm formation (P. mirabilis) | Magnesium and phosphorus precipitation on catheter segments (ICP-OES) (P. mirabilis; [6]) | catheter biofilm biomass (crystal violet) vs untreated P. mirabilis (P. mirabilis; [6]) | pH of AUM collected from “bladders” over 24 h (P. mirabilis; alone, lower concentrations) | pH of AUM collected from “bladders” over 24 h (P. mirabilis; [7]) | P. mirabilis CFUs in effluent over time (P. mirabilis) | urease-mediated pH increase (P. mirabilis) | response of isolated guinea pig bladders [1] | response of isolated rabbit bladders (isolated rabbit bladders) | buffering capacity: absorbance (OD562) across NaOH concentrations [2] | blood pressure in cats [3] | effects in mice [4]
1 | O.O=C(O)[C@H](O)Cc1cnc[nH]1 [D-imidazole lactate, D-imidazolelactic acid hydrate] | most potent urease inhibition | perturbed growth | robust antimicrobial activity | perturbed growth | robust antimicrobial activity | perturbed growth | less-pronounced antimicrobial activity | one log reduction |  |  |  |  |  |  |  |  |  |  |  | 
2 | NCCc1c[nH]cn1 [Histamine, histamine dihydrochloride] |  |  |  |  |  |  |  |  | no impact on crystalline biofilm formation | reduced, although the reduction was not statistically significant | significantly reduced biofilm biomass | failed to restrict pH | never surpassed the nucleation point | no meaningful differences between CFUs over time | perturbed urease-mediated pH increase in a dose-dependent manner | induce a contractile response | induce a contractile response |  |  | 
3 | Cl.O=C(O)Cc1cnc[nH]1 [4-imidazole acetate, 2-(1H-Imidazol-5-yl)acetic acid hydrochloride] |  |  |  |  |  |  |  |  | no impact on crystalline biofilm formation | reduced, although the reduction was not statistically significant | significantly reduced biofilm biomass | failed to restrict pH | never surpassed the nucleation point | no meaningful differences between CFUs over time | perturbed urease-mediated pH increase in a dose-dependent manner |  |  | consistent reduction in absorbance compared to the control | dose-dependent decrease in blood pressure | sleep-like state and a decrease in body temperature
